ChEMBL document CHEMBL1201862, “PubChem BioAssay data set” (2004)
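Where inhibition never reached the appropriate level, the endpoint shown equals the highest concentration tested. Otherwise, values were interpolated linearly from a five-concentration, 48-hour dose response in 96-well plates. The concentration for 50% growth inhibition is given as GI50.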 Calls of active or inactive are those of the source. Cut-off read from the data, not from the text of the source: active = GI50 up to about 1.1 µM and inactive = higher.

Assays:
Experiment in all cases: NCI-60 cell line screen, 48 h
[1] = test system: Malme-3M
[2] = test system: SR
[3] = test system: UACC-62
[4] = test system: 786-0
[5] = test system: UO-31
[6] = test system: BT-549
[7] = test system: DU-145
[8] = test system: SK-OV-3
[9] = test system: HT-29
[10] = test system: MDA-MB-435
[11] = test system: MCF7
[12] = test system: SNB-19
[13] = test system: MDA-N
[14] = test system: CAKI-1
[15] = test system: SK-MEL-5
[16] = test system: HCT-15
[17] = test system: OVCAR-5
[18] = test system: OVCAR-3
[19] = test system: SK-MEL-28
[20] = test system: IGROV-1
[21] = test system: NCI-H522
[22] = test system: NCI-H23
[23] = test system: MDA-MB-231
[24] = test system: A549
[25] = test system: T47D
[26] = test system: COLO 205
[27] = test system: CCRF-CEM
[28] = test system: MOLT-4
[29] = test system: OVCAR-8
[30] = test system: SK-MEL-2
[31] = test system: SW-620
[32] = test system: HCT-116
[33] = test system: HCC 2998
[34] = test system: SF-539
[35] = test system: HL-60
[36] = test system: M14
[37] = test system: RXF 393
[38] = test system: UACC-257
[39] = test system: NCI-H460
[40] = test system: PC-3
[41] = test system: HOP-92
[42] = test system: U-251
[43] = test system: KM12
[44] = test system: OVCAR-4
[45] = test system: SF-295
[46] = test system: ACHN
[47] = test system: Hs-578T
[48] = test system: SN12C
[49] = test system: RPMI-8226
[50] = test system: HOP-62
[51] = test system: SF-268
[52] = test system: EKVX
[53] = test system: NCI/ADR-RES
[54] = test system: NCI-H226
[55] = test system: K562
[56] = test system: LOX IMVI
[57] = test system: A498

CCOC(=O)CNC(=O)C(CSC(=O)N(O)c1ccc(Br)cc1)NC(=O)CCC(N)C(=O)OCC (configuration not stated)
GI50 [1]: > 50 µM (inactive)
GI50 [2]: > 50 µM (inactive)
GI50 [3]: > 50 µM (inactive)
GI50 [4]: > 50 µM (inactive)
GI50 [5]: > 50 µM (inactive)
GI50 [6]: > 50 µM (inactive)
GI50 [7]: > 50 µM (inactive)
GI50 [8]: > 50 µM (inactive)
GI50 [9]: > 50 µM (inactive)
GI50 [10]: 24.4 µM (inactive)
GI50 [11]: > 50 µM (inactive)
GI50 [12]: > 50 µM (inactive)
GI50 [13]: > 50 µM (inactive)
GI50 [14]: > 50 µM (inactive)
GI50 [15]: > 50 µM (inactive)
GI50 [16]: > 50 µM
GI50 [17]: > 50 µM (inactive)
GI50 [18]: > 50 µM (inactive)
GI50 [19]: > 50 µM (inactive)
GI50 [20]: > 50 µM (inactive)
GI50 [21]: > 50 µM (inactive)
GI50 [22]: > 50 µM (inactive)
GI50 [23]: > 50 µM (inactive)
GI50 [24]: > 50 µM (inactive)
GI50 [25]: > 50 µM (inactive)
GI50 [26]: > 50 µM (inactive)
GI50 [27]: 27.4 µM (inactive)
GI50 [28]: 2.96 µM (inactive)
GI50 [29]: > 50 µM (inactive)
GI50 [30]: > 50 µM (inactive)
GI50 [31]: 45.1 µM (inactive)
GI50 [32]: > 50 µM (inactive)
GI50 [33]: > 50 µM (inactive)
GI50 [34]: > 50 µM (inactive)
GI50 [35]: 0.005 µM (active)
GI50 [36]: > 50 µM (inactive)
GI50 [37]: > 50 µM (inactive)
GI50 [38]: > 50 µM (inactive)
GI50 [39]: > 50 µM (inactive)
GI50 [40]: > 50 µM (inactive)
GI50 [41]: 8.45 µM (inactive)
GI50 [42]: > 50 µM (inactive)
GI50 [43]: 45.8 µM (inactive)
GI50 [44]: > 50 µM (inactive)
GI50 [45]: > 50 µM (inactive)
GI50 [46]: > 50 µM (inactive)
GI50 [47]: > 50 µM (inactive)
GI50 [48]: > 50 µM (inactive)
GI50 [49]: 21 µM (inactive)
GI50 [50]: > 50 µM (inactive)
GI50 [51]: > 50 µM (inactive)
GI50 [52]: > 50 µM (inactive)
GI50 [53]: > 50 µM (inactive)
GI50 [54]: > 50 µM (inactive)
GI50 [55]: 41.9 µM (inactive)
GI50 [56]: 40.1 µM (inactive)
GI50 [57]: > 50 µM (inactive)
